Source: patent US11834679B2, “Method for producing cardiomyocytes” (KATAOKA CORPORATION, priority 2018, dated 2023)

System: human fibroblasts
Assay: Direct induction from human fibroblasts to cardiomyocytes (microscopic observation of morphology and pulsation)
Format: cell-based
Description: The human fibroblasts used as the material were purchased from DS Pharma Biomedical Co., Ltd. The fibroblasts are derived from human skin. The human fibroblasts were seeded in 8×10^4 portions in 35-mm dishes coated with gelatin (Cat #: 190-15805, manufactured by Wako Pure Chemical Co.) and cultured in DMEM high glucose medium (manufactured by Gibco) supplemented with 10% fetal bovine serum (Fetal bovine serum; FBS), 100 U/mL penicillin, and 100 μg/mL streptomycin for 2 days at 37° C. under 5% CO2 conditions (80-90% or more confluent). DMEM denotes Dulbecco's Modified Eagle Medium (Dulbecco's Modified Eagle Medium). The medium of dishes of the human fibroblasts described above was replaced with a medium of DMEM (High Glucose with L-Glutamine Phenol Red, and Sodium Pyruvate) (manufactured by Gibco) having 20% fetal bovine serum (FBS), 2% B27-supplement (manufactured by Gibco), 1% N2 (manufactured by Gibco), non-essential amino acids (NEAA: manufactured by Gibco), β-mercaptoethanol (manufactured by Nacalai Tesque; final concentration of 0.1 mmol/L), 2-phospho ascorbic acid (manufactured by Sigma-Aldrich; final concentration of 50 μg/mL), 100 U/mL penicillin, 100 μg/mL streptomycin, and low molecular weight compounds described below. […] This was assessed by observing cell clumps that contract spontaneously and periodically under a microscope. […]

In the case of `O=C(NOC[C@H](O)CO)c1ccc(F)c(F)c1Nc1ccc(I)cc1F` [Ex. A, PD0325901], the “appearance of spontaneously contracting (myocardial) cell clumps” value (Tables 1-2, FIGS. 1-6, culture day 7 to 17) is reported as “low in frequency” and the “Induction efficiency (Morphology, pulsation)” value (human skin fibroblasts cultured with the compound combination, grades ⊚, ◯, Δ, X not defined) is reported as “Δ”.
